Literature values as cited in patent US20150017242A1 (Lupin Limited, priority 2012, published 2015).
Read-outs that look alike come from different tables or passages of the source.

Experiments:
[1] = not given; remark: listed apart in the source

CCCCc1oc2ccc(NS(C)(=O)=O)cc2c1C(=O)c1ccc(OCCCN(CCCC)CCCC)cc1.Cl [Dronedarone, N-{2-butyl-3-[4-(3-dibutylaminopropoxy)benzoyl]benzofuran-5-yl}methane sulfonamide, hydrochloride]
behaviour at higher pH condition: precipitates out | absolute oral bioavailability ([1]; administered with a high fat meal): approx. 15% | absolute oral bioavailability ([1]; fasting): 4%
